According to patent US12409177B2, “FGFR inhibitors for the treatment of cancer” (BridGene Biosciences, Inc., priority 2019, dated 2025):
Read-outs that look alike come from different tables or passages of the source. Blank lines part the entries; values can stand above or below the compound they belong to.

Tests used:
[1] = target: FGFR4 (Homo sapiens, UniProt P22455); test: FGFR4 kinase inhibition (IC50); format: biochemical
[2] = target: FGFR2 (Homo sapiens, UniProt P21802); test: FGFR2 kinase inhibition (IC50); format: biochemical
[3] = MDCK permeability; format: in vitro ADME; details: dog
[4] = target: FGFR1 (Homo sapiens, UniProt P11362); test: FGFR1 kinase inhibition (IC50); format: biochemical
[5] = target: FGFR3 (Homo sapiens, UniProt P22607); test: FGFR3 kinase inhibition (IC50); format: biochemical
[6] = Solubility in 5% DMSO and 95% of (20% HPBC in PBS); format: physicochemical
Description: The inventive compound 1 improves the FGFR4-selective inhibitory effect.

[7] = system: Hepatocyte; test: Mouse hepatocyte clearance; format: in vitro ADME; details: mouse hepatocytes; value ± SE
[8] = Protein binding; format: in vitro ADME
[9] = Pharmacokinetics in mice (IP, IV, PO); format: in vivo; details: for clearance / half-life / Vd / bioavailability / AUC(0-inf) / AUC(0-t) / Cmax / MRT inf / MRT last / Tmax: in vivo, mouse; for Vd: read-out: Vss
Description: FIG. 2A is the pharmacokinetic data of compound 1 administered by intraperitoneal injection (IP) into mice at 10 mg/kg, according to some embodiments of the present disclosure;
FIG. 2B is the pharmacokinetic data of compound 1 administered by intravenous injection (IV) into mice at 1 mg/kg and per os (PO) at 5 mg/kg, according to some embodiments of the present disclosure;

[10] = Mouse plasma stability; format: in vitro ADME; details: value ± SE, read-out: Ms Plasma Stability t1/2 (SE)
[11] = Pharmacokinetics in mice (IP, IV, PO); details: mouse, in vivo, PO 100 mg/kg
[12] = read-out: FGFR4 inhibition (IC50 class)
[13] = read-out: FGFR2 Inhibition (IC50 class)
[14] = read-out: FGFR1 Inhibition (IC50 class)
[15] = read-out: FGFR3 Inhibition (IC50 class)

Sequence of FGFR2 (P21802 22-821): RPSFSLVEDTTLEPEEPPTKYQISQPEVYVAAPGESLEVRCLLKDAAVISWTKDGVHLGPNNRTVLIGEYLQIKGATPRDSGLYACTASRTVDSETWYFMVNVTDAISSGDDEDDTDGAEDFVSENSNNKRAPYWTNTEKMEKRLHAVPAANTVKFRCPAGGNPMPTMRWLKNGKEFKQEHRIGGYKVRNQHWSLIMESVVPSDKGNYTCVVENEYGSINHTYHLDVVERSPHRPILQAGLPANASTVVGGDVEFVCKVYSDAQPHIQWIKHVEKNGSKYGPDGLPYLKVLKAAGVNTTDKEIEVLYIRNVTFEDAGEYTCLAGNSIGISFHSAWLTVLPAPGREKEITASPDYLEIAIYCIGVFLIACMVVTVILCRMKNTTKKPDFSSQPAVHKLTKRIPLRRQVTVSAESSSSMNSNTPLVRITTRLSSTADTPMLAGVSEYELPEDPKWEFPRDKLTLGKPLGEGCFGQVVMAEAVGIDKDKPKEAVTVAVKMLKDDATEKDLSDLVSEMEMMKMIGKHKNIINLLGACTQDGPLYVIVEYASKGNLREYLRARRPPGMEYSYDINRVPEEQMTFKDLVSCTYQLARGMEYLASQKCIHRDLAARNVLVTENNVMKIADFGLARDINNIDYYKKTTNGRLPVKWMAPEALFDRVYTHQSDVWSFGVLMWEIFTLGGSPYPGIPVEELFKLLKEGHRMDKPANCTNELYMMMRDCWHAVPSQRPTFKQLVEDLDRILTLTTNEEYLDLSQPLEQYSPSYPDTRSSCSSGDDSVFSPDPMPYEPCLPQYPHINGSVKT
Sequence of FGFR4 (P22455 22-802): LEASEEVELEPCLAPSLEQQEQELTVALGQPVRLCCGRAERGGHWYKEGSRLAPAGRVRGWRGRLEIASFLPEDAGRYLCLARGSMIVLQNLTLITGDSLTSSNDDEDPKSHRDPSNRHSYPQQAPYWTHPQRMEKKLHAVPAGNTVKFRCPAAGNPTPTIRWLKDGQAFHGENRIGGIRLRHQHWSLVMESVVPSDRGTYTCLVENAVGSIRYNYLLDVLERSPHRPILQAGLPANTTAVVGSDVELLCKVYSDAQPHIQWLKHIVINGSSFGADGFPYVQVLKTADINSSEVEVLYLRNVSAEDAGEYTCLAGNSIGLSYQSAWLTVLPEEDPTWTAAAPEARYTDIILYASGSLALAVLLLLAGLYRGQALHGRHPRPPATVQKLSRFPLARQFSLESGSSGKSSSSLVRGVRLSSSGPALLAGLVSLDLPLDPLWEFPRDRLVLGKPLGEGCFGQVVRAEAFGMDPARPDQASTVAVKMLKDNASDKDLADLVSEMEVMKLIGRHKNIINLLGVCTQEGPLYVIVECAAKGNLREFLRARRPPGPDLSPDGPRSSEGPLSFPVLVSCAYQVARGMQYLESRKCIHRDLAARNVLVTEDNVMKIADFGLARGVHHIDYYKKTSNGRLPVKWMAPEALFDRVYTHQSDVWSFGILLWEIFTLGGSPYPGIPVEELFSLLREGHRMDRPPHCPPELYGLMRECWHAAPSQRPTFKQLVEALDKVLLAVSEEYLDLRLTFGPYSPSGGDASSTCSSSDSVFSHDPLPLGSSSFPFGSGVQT
Sequence of FGFR1 (P11362 22-822): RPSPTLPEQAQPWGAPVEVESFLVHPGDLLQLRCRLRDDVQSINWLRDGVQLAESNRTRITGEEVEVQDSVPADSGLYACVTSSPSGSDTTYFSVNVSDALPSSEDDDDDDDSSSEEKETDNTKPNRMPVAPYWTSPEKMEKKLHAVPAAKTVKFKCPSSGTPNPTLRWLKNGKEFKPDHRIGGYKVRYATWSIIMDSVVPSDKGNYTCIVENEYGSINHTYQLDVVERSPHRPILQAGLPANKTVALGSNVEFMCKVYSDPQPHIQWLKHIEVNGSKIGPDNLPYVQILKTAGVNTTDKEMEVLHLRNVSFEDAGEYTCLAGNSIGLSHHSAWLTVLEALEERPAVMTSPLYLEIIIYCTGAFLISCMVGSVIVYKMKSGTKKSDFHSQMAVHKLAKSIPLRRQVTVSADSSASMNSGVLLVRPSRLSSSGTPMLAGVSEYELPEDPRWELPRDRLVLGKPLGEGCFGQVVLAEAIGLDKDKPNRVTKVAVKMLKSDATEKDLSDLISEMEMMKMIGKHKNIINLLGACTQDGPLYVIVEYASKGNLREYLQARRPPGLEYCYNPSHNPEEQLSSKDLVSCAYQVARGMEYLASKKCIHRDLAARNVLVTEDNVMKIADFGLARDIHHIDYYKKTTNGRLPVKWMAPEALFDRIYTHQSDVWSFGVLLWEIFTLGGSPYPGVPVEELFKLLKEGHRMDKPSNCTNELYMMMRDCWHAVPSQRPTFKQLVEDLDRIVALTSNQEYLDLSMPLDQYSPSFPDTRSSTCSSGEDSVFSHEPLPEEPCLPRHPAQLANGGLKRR
Sequence of FGFR3 (P22607 23-806): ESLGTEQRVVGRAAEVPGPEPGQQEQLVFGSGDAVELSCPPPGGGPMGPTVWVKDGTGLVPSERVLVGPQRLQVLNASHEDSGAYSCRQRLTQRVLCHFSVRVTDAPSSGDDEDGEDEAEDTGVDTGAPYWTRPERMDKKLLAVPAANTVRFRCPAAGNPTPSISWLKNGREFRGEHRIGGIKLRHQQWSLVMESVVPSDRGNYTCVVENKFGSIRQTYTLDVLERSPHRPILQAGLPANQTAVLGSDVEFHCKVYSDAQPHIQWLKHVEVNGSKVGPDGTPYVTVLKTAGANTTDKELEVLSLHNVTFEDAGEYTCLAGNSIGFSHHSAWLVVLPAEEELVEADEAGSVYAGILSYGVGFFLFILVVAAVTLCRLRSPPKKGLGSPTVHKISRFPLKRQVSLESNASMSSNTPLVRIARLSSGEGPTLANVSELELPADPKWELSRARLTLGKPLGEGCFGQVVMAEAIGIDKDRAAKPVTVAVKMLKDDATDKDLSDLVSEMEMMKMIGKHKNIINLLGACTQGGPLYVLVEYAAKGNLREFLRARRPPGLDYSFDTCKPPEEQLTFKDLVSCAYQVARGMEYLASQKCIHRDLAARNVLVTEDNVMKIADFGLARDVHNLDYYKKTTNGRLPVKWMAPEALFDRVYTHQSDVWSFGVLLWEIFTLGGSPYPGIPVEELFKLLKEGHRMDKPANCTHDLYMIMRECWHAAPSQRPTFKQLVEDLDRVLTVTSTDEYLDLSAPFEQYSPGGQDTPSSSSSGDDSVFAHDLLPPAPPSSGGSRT

IC50 [1, 12]: 100 to 1000 nM
SMILES: C=CC(=O)N[C@H]1CCC[C@H]1Nc1cc(-c2cccnc2Nc2c(Cl)c(OC)cc(OC)c2Cl)ncn1 (single isomer, unassigned) [Compound 16, N-[cis-2-[[6-[2-(2,6-dichloro-3,5-dimethoxy-anilino)-3-pyridyl]pyrimidin-4-yl]amino]cyclopentyl]prop-2-enamide]

IC50 [2, 13]: ≥ 1000 nM
IC50 ([2]; read-out: IC50 towards FGFR2): 1870 nM
Papp A→B [3]: 25.8 ×10⁻⁶ cm/s
IC50 [1, 12]: 10 to 100 nM
IC50 ([1]; read-out: IC50 towards FGFR4): 20 nM
IC50 [4, 14]: ≥ 1000 nM
IC50 ([4]; read-out: IC50 towards FGFR1): 1280 nM
IC50 [5, 15]: ≥ 1000 nM
IC50 ([5]; read-out: IC50 towards FGFR3): 4440 nM
solubility [6]: much-improved solubility
Hepatocyte Clin Ms (SE) [7]: 43.6 ± 1.3 µL/min/1e6 cells
fraction unbound [8]: 0.08
clearance ([9]; intravenous, Table 2 summary): 26.7 mL/min/kg
half-life ([9]; intravenous, Table 2 summary): 0.52 h
Vd ([9]; intravenous, Table 2 summary): 0.88 L/kg
bioavailability ([9]; oral, Table 2 summary): 20.9%
AUC(0-inf) ([9]; mice, IP 10 mg/kg): 9610 ng·h/mL
AUC(0-t) ([9]; mice, IP 10 mg/kg): 9610 ng·h/mL
Cmax ([9]; mice, IP 10 mg/kg): 14900 ng/mL
MRT inf ([9]; mice, IP 10 mg/kg): 0.67 h
MRT last ([9]; mice, IP 10 mg/kg): 0.67 h
Tmax ([9]; mice, IP 10 mg/kg): 0.25 h
half-life ([9]; mice, IP 10 mg/kg): 2.81 h
AUC(0-inf) ([9]; mice, IV 1 mg/kg): 621 ng·h/mL
AUC(0-t) ([9]; mice, IV 1 mg/kg): 618 ng·h/mL
Cmax ([9]; mice, IV 1 mg/kg): 849 ng/mL
MRT inf ([9]; mice, IV 1 mg/kg): 0.537 h
MRT last ([9]; mice, IV 1 mg/kg): 0.515 h
Tmax ([9]; mice, IV 1 mg/kg): 0.083 h
clearance ([9]; mice, IV 1 mg/kg): 27.2 mL/min/kg
half-life ([9]; mice, IV 1 mg/kg): 0.522 h
Vd ([9]; mice, IV 1 mg/kg): 0.876 L/kg
AUC(0-inf) ([9]; mice, PO 5 mg/kg): 648 ng·h/mL
AUC(0-t) ([9]; mice, PO 5 mg/kg): 465 ng·h/mL
Cmax ([9]; mice, PO 5 mg/kg): 119 ng/mL
MRT inf ([9]; mice, PO 5 mg/kg): 4.02 h
MRT last ([9]; mice, PO 5 mg/kg): 3.42 h
Tmax ([9]; mice, PO 5 mg/kg): 3.17 h
bioavailability ([9]; mice, PO 5 mg/kg): 20.9%
half-life ([9]; mice, PO 5 mg/kg): 2.73 h
half-life [10]: 19.1 ± 5.78 h
SMILES: C=CC(=O)N[C@H]1COC[C@H]1Nc1cc(-c2cccnc2Nc2c(Cl)c(OC)cc(OC)c2Cl)ncn1 [Compound 1]

IC50 [2, 13]: 100 to 1000 nM
IC50 [1, 12]: ≤ 10 nM
IC50 [4, 14]: 10 to 100 nM
IC50 [5, 15]: 100 to 1000 nM
SMILES: C=CC(=O)NC1CC1Nc1cc(-c2cccnc2Nc2c(Cl)c(OC)cc(OC)c2Cl)ncn1 (centres unmarked) [Compound 2]

IC50 [1, 12]: 100 to 1000 nM
SMILES: C=CC(=O)N[C@H]1CC[C@H]1Nc1cc(-c2cccnc2Nc2c(Cl)c(OC)cc(OC)c2Cl)ncn1 [Compound 3]

IC50 [1, 12]: 10 to 100 nM
SMILES: C=CC(=O)N[C@H]1CCOC[C@H]1Nc1cc(-c2cccnc2Nc2c(Cl)c(OC)cc(OC)c2Cl)ncn1 [Compound 4]

AUC(0-t) [11]: 1450 ng·h/mL
Tmax [11]: 6.67 h
bioavailability [11]: 8.09%
Papp A→B [3]: 11.4 ×10⁻⁶ cm/s
solubility [6]: poor solubility
Hepatocyte Clin Ms (SE) [7]: 41.7 ± 1.73 µL/min/1e6 cells
clearance ([9]; intravenous, Table 2 summary): 14 mL/min/kg
half-life ([9]; intravenous, Table 2 summary): 15 h
bioavailability ([9]; oral, Table 2 summary): 8%
T1/2 ([9]; mice, IP 10 mg/kg): 1.23 h
AUC(0-inf) ([9]; mice, IP 10 mg/kg): 1280 ng·h/mL
AUC(0-t) ([9]; mice, IP 10 mg/kg): 1270 ng·h/mL
Cmax ([9]; mice, IP 10 mg/kg): 865 ng/mL
MRT inf ([9]; mice, IP 10 mg/kg): 1.66 h
MRT last ([9]; mice, IP 10 mg/kg): 1.57 h
Tmax ([9]; mice, IP 10 mg/kg): 0.25 h
AUC(0-inf) ([9]; mice, IV 5 mg/kg): 1240 ng·h/mL
AUC(0-t) ([9]; mice, IV 5 mg/kg): 896 ng·h/mL
Cmax ([9]; mice, IV 5 mg/kg): 470 ng/mL
MRT inf ([9]; mice, IV 5 mg/kg): 18.5 h
MRT last ([9]; mice, IV 5 mg/kg): 7.71 h
Tmax ([9]; mice, IV 5 mg/kg): 0.083 h
clearance ([9]; mice, IV 5 mg/kg): 13.9 mL/min/kg
half-life ([9]; mice, IV 5 mg/kg): 15.1 h
Vd ([9]; mice, IV 5 mg/kg): 15.3 L/kg
Cmax ([9]; mice, PO 100 mg/kg): 180 ng/mL
MRT last ([9]; mice, PO 100 mg/kg): 6.1 h
half-life [10]: 3.69 ± 0.928 h
SMILES: C=CC(=O)Nc1cccc(C)c1Nc1cc(-c2cccnc2Nc2c(Cl)c(OC)cc(OC)c2Cl)ncn1 [Compound 5, N-(2-((6-(2-((2,6-dichloro-3,5-dimethoxyphenyl)amino)pyridin-3-yl)pyrimidin-4-yl)amino)-3-methylphenyl)acrylamide, reference compound]

IC50 [2, 13]: 100 to 1000 nM
IC50 [1, 12]: ≤ 10 nM
IC50 [4, 14]: 100 to 1000 nM
IC50 [5, 15]: ≥ 1000 nM
SMILES: C=CC(=O)Nc1cc(OC2CN(C)C2)ccc1Nc1cc(-c2cccnc2Nc2c(Cl)c(OC)cc(OC)c2Cl)ncn1 [Compound 6, N-[2-[[6-[2-(2,6-dichloro-3,5-dimethoxy-anilino)-3-pyridyl]pyrimidin-4-yl]amino]-5-(1-methylazetidin-3-yl)oxy-phenyl]prop-2-enamide]

IC50 [2, 13]: 100 to 1000 nM
IC50 [1, 12]: ≤ 10 nM
IC50 [4, 14]: 100 to 1000 nM
IC50 [5, 15]: ≥ 1000 nM
SMILES: C=CC(=O)Nc1cc(OCC2CN(C)C2)ccc1Nc1cc(-c2cccnc2Nc2c(Cl)c(OC)cc(OC)c2Cl)ncn1 [Compound 7, N-[2-[[6-[2-(2,6-dichloro-3,5-dimethoxy-anilino)-3-pyridyl]pyrimidin-4-yl]amino]-5-[(1-methylazetidin-3-yl)methoxy]phenyl]prop-2-enamide]

IC50 [2, 13]: 100 to 1000 nM
IC50 [1, 12]: ≤ 10 nM
IC50 [4, 14]: ≥ 1000 nM
IC50 [5, 15]: ≥ 1000 nM
SMILES: C=CC(=O)Nc1cc(OC2CCN(C)CC2)ccc1Nc1cc(-c2cccnc2Nc2c(Cl)c(OC)cc(OC)c2Cl)ncn1 [Compound 8, N-[2-[[6-[2-(2,6-dichloro-3,5-dimethoxy-anilino)-3-pyridyl]pyrimidin-4-yl]amino]-5-[(1-methyl-4-piperidyl)oxy]phenyl]prop-2-enamide]

IC50 [2, 13]: 100 to 1000 nM
IC50 [1, 12]: ≤ 10 nM
IC50 [4, 14]: 100 to 1000 nM
IC50 [5, 15]: ≥ 1000 nM
SMILES: C=CC(=O)Nc1cc(OC2CCN(C)C2)ccc1Nc1cc(-c2cccnc2Nc2c(Cl)c(OC)cc(OC)c2Cl)ncn1 (centres unmarked) [Compound 9, N-[2-[[6-[2-(2,6-dichloro-3,5-dimethoxy-anilino)-3-pyridyl]pyrimidin-4-yl]amino]-5-(1-methylpyrrolidin-3-yl)oxy-phenyl]prop-2-enamide]

IC50 [2, 13]: ≥ 1000 nM
IC50 [1, 12]: ≤ 10 nM
IC50 [4, 14]: ≥ 1000 nM
IC50 [5, 15]: ≥ 1000 nM
SMILES: C=CC(=O)Nc1cc(OC2CCOC2)ccc1Nc1cc(-c2cccnc2Nc2c(Cl)c(OC)cc(OC)c2Cl)ncn1 (centres unmarked) [Compound 10, N-[2-[[6-[2-(2,6-dichloro-3,5-dimethoxy-anilino)-3-pyridyl]pyrimidin-4-yl]amino]-5-tetrahydrofuran-3-yloxy-phenyl]prop-2-enamide]

IC50 [2, 13]: ≥ 1000 nM
IC50 [1, 12]: ≤ 10 nM
IC50 [4, 14]: ≥ 1000 nM
IC50 [5, 15]: ≥ 1000 nM
SMILES: C=CC(=O)Nc1cc(OC2COC2)ccc1Nc1cc(-c2cccnc2Nc2c(Cl)c(OC)cc(OC)c2Cl)ncn1 [Compound 11, N-[2-[[6-[2-(2,6-dichloro-3,5-dimethoxy-anilino)-3-pyridyl]pyrimidin-4-yl]amino]-5-(oxetan-3-yloxy)phenyl]prop-2-enamide]

IC50 [2, 13]: 100 to 1000 nM
IC50 [1, 12]: ≤ 10 nM
IC50 [4, 14]: 100 to 1000 nM
IC50 [5, 15]: ≥ 1000 nM
SMILES: C=CC(=O)Nc1cc(OCCN2CCCC2)ccc1Nc1cc(-c2cccnc2Nc2c(Cl)c(OC)cc(OC)c2Cl)ncn1 [Compound 12, N-[2-[[6-[2-(2,6-dichloro-3,5-dimethoxy-anilino)-3-pyridyl]pyrimidin-4-yl]amino]-5-(2-pyrrolidin-1-ylethoxy)phenyl]prop-2-enamide]

IC50 [1, 12]: ≥ 1000 nM
SMILES: C=CC(=O)Nc1ncn(C)c1Nc1cc(-c2cccnc2Nc2c(Cl)c(OC)cc(OC)c2Cl)ncn1 [Compound 13, N-[5-[[6-[2-(2,6-dichloro-3,5-dimethoxy-anilino)-3-pyridyl]pyrimidin-4-yl]amino]-1-methyl-imidazol-4-yl]prop-2-enamide]

IC50 [2, 13]: ≥ 1000 nM
IC50 [1, 12]: ≤ 10 nM
IC50 [4, 14]: ≥ 1000 nM
IC50 [5, 15]: ≥ 1000 nM
SMILES: C=CC(=O)Nc1cc(OCCN(C)C)ccc1Nc1cc(-c2cccnc2Nc2c(Cl)c(OC)cc(OC)c2Cl)ncn1 [Compound 14]

IC50 [2, 13]: ≥ 1000 nM
IC50 [1, 12]: ≤ 10 nM
IC50 [4, 14]: ≥ 1000 nM
IC50 [5, 15]: ≥ 1000 nM
SMILES: C=CC(=O)Nc1cc(OCCN(CC)CC)ccc1Nc1cc(-c2cccnc2Nc2c(Cl)c(OC)cc(OC)c2Cl)ncn1 [Compound 15]
